In PubChem BioAssay (NCI) one finds TGI data, which are given here for 7 molecules.

Among the test systems are A498 renal; ACHN renal; COLO 205 colon; EKVX NSCLC; HCT-15 colon; HT29 colon; KM12 colon; M14 melanoma; NCI-H522 lung; OVCAR-4 ovarian; RPMI-8226 leukemia; RXF 393 renal; SF-268 CNS; SK-MEL-5 melanoma; SNB-75 CNS; SW-620 colon.
Holding throughout (test): NCI tumour cell line growth inhibition, 48 h

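How tested: cells in 96-well plates exposed to compound for 48 hours at five concentrations. Definition used: TGI = concentration required for complete inhibition of growth.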

With `O=C1C2CN(Cc3ccccc3)CC1CN(CC1CC1)C2`, the TGI with A498 renal, with ACHN renal, in the test with COLO 205 colon, in the test with EKVX NSCLC, with HCT-15 colon and with HT29 colon was more than 100 µM throughout. Also, the TGI in the test on KM12 colon, in the test on M14 melanoma, in the test on NCI-H522 lung, in the test with OVCAR-4 ovarian, in the test with RPMI-8226 leukemia and with RXF 393 renal was more than 100 µM each time. Besides, the TGI in the test with SF-268 CNS, in the test on SK-MEL-5 melanoma, in the test with SNB-75 CNS and with SW-620 colon was more than 100 µM throughout.
As to `COc1c(C)cc2c(c1O)C1NC(C2)[C@H](O)N2C3COC(=O)[C@@]4(CS[C@@H](c5c(OC(C)=O)c(C)c6c(c53)OCO6)C12)NCCC1=C4NC2C=CC=CC12` (stereo partly specified), the TGI is less than 0.01 µM in the test on A498 renal; 0.0148 µM with ACHN renal; 0.0306 µM in the test with EKVX NSCLC; 0.113 µM in the test on HCT-15 colon; 0.107 µM with HT29 colon; less than 0.01 µM in the test on M14 melanoma. Besides, the TGI was 0.0161 µM in the test with RPMI-8226 leukemia; less than 0.01 µM in the test on RXF 393 renal; 0.0304 µM in the test on SF-268 CNS; less than 0.01 µM in the test on SK-MEL-5 melanoma; less than 0.01 µM in the test with SNB-75 CNS; less than 0.01 µM in the test on SW-620 colon.
Take `CCOP(=O)(OCC)C(C(=O)OC)C(=O)C(=O)Nc1c(C)cc(Br)cc1C` (stereo unspecified): the TGI in the test on A498 renal, in the test on ACHN renal, in the test with COLO 205 colon, in the test on EKVX NSCLC, with HCT-15 colon and in the test on HT29 colon was more than 100 µM each time. Moreover, the TGI in the test on KM12 colon, in the test on M14 melanoma, in the test with NCI-H522 lung, with OVCAR-4 ovarian, with RPMI-8226 leukemia and in the test with RXF 393 renal was more than 100 µM throughout. For the same molecule, the TGI with SF-268 CNS, in the test with SK-MEL-5 melanoma, in the test on SNB-75 CNS and in the test with SW-620 colon was more than 100 µM throughout.
On to `CC(C)N1CN(C(C(=O)N[C@@H]2C(=O)N3C2SC(C)(C)C3C(=O)O)c2ccc(O)cc2)CSC1=S` (stereo partly specified), for which the TGI in the test with A498 renal, in the test with ACHN renal, in the test with COLO 205 colon, in the test with EKVX NSCLC, in the test on HCT-15 colon and with HT29 colon was more than 100 µM each time. In addition, the TGI in the test on KM12 colon, in the test with M14 melanoma, in the test on NCI-H522 lung, in the test with OVCAR-4 ovarian, with RPMI-8226 leukemia and in the test on SF-268 CNS was more than 100 µM each time. For the same molecule, the TGI in the test with SK-MEL-5 melanoma is more than 100 µM; in the test on SNB-75 CNS, more than 100 µM; with SW-620 colon, 36.9 µM.
Regarding `CCOc1ccc(NC(=O)C2=C(C)NC(C)=C(C(=O)Nc3ccc(OCC)cc3)C2c2ccccc2)cc1`, the TGI in the test on A498 renal, in the test on ACHN renal, with COLO 205 colon, in the test with EKVX NSCLC, in the test on HT29 colon and in the test on KM12 colon was more than 100 µM each time. Further, the TGI with M14 melanoma, in the test with NCI-H522 lung, in the test with OVCAR-4 ovarian, in the test on RPMI-8226 leukemia, in the test with RXF 393 renal and in the test with SF-268 CNS was more than 100 µM each time. The TGI in the test on SK-MEL-5 melanoma, in the test on SNB-75 CNS and with SW-620 colon was more than 100 µM in each case.
Regarding `CN(Cc1ccccc1)C(=NC#N)N(C)Cc1ccccc1`, the TGI with ACHN renal, with COLO 205 colon, in the test on EKVX NSCLC, in the test on HCT-15 colon, in the test on HT29 colon and in the test on KM12 colon was more than 100 µM in each case. In addition, the TGI with M14 melanoma, with NCI-H522 lung, in the test on OVCAR-4 ovarian, with SF-268 CNS, in the test on SK-MEL-5 melanoma and in the test with SW-620 colon was more than 100 µM each time.
For `COc1cc(/C=C\c2cccnc2)cc(OC)c1OC`, the TGI in the test on ACHN renal was more than 100 µM; in the test on COLO 205 colon, 69 µM; in the test on EKVX NSCLC it was more than 100 µM; with HCT-15 colon, more than 100 µM; in the test with HT29 colon it was more than 100 µM; with KM12 colon, more than 100 µM. Besides, the TGI in the test with M14 melanoma was 97.2 µM; in the test on NCI-H522 lung it was 96.3 µM; in the test on OVCAR-4 ovarian, more than 100 µM; in the test with RPMI-8226 leukemia it was 47.7 µM; with RXF 393 renal it was 88.5 µM; in the test with SF-268 CNS, more than 100 µM. The TGI is 40.8 µM in the test with SK-MEL-5 melanoma, more than 100 µM in the test on SNB-75 CNS and more than 100 µM in the test on SW-620 colon.
